The values below come from US20110209699A1, “COMBINATION OF DEHYDROEPIANDROSTERONE OR DEHYDROEPIANDROSTERONE-SULFATE WITH A LIPOXYGENASE INHIBITOR FOR TREATMENT OF ASTHMA OR CHRONIC OBSTRUCTIVE PULMONARY DISEASE” (priority 2003, published 2011).

Data set [1] has as its system HT-29 SF cells. The experiment in a line: Reversal of DHEA-mediated growth inhibition. It is filed as cell-based, human. The settings on record: 25 μM DHEA, 48 hour treatment; MVA 2 μM, SQ 80 μM, CH 15 μg/ml, RN 30 μM each, DN 20 μM each.
A short description of data set [2]: HPLC analysis of drug degradation during jet milling micronization. It is filed as physicochemical. The settings on record: single and double pass jet-milled powder vs unmilled standard, HPLC peak area. As for the experimental part: Approximately 1 g sample was passed through the jet mill, once, and approximately 2 g sample were passed through the jet mill twice. […] The resulting solution was sonicated for 3 minutes and appeared fully dispersed. The dispersed solutions were tested on a Malvern Mastersizer X with a small volume sampler (SVS) attachment. One sample of dispersed material was tested 5 times. The median particle size or D (v, 0.5) of unmilled material was 52.56 μm and the % RSD (relative standard deviation) was 7.61 for the 5 values. The D (v, 0.5) for a single pass through the jet mill was 3.90 μm and the % RSD was 1.27, and the D (v, 0.5) from a double pass through the jet mill 3.25 μm and the % RSD was 3.10.
Two vials (A; single-pass; 150 mg) and (B double-pass; 600 mg) of the micronized drug were available for determining drug degradation during jet milling micronization. […] The chromatographic peak area for the HPLC assay of the unmilled drug standard solution (10 mg/ml) gave a value of 23,427. […] The chromatographic peak areas for vials A and B were 11,979 and 11,677, respectively.

Data set [3] has as its system HT-29 SF cells. Kind of data set: Reversal of DHEA effect on cell cycle. It is filed as cell-based, human. The settings on record: 25 μM DHEA.
For a further data set, the system named is Intracellular adenosine. Kind of data set: In vivo effect on adenosine levels in various rat tissues. The settings on record: for Intracellular adenosine (nmols)/mg protein, Brain: rat brain, control 0.5 ± 0.04. Also on record: species or system Fischer 344 rats. As for the experimental part:
Folinic acid (50 mg/kg) was administered intraperitoneally once daily for fourteen days. […] Hearts were removed from animals and flash frozen in liquid nitrogen with 10 s of death. Liver and lungs were removed en bloc and flash frozen with 30 s of death. Brain tissue was subsequently dissected.

In data set [4] the test system is HT-29 SF cells. The experiment in a line: DHEA effect on cell cycle (flow cytometry). It is filed as cell-based, human. The settings on record: 25, 50 or 200 μM; 24, 48, 72 hours; propidium iodide DNA content. (In general: Flow cytometry measures light scatter and fluorescence of single cells or particles in a stream.)
Data set [5] has as its system HT-29 SF cells. Kind of data set: DHEA effect on cell growth (Coulter counter). The settings on record: 0, 12.5, 25, 50 or 200 μM; cell number at 0, 24, 48, 72 hours.
Description: Cell cultures, HT-29 SF cells, which represent a subline of HY-29 cells (ATCC, Rockville, Md.) and are adapted for growth in completely defined serum-free PC-1 medium (Ventrex, Portland, Me.), were obtained. Stock cultures were maintained in this medium at 37° C. (in a humidified atmosphere containing 5% CO2).
Data set [6] in a line: Solubility of DHEA-S as a function of NaCl concentration and temperature. The settings on record: for equilibrium constant Ksp=[DHEA-S-][Na+]: slope of solubility vs reciprocal sodium concentration. It is filed as physicochemical. An excerpt: Inhalation of pure water can produce a cough stimulus. […] The temperature effect is weaker at high NaCl concentrations.
Data set [7] is described as follows: Physicochemical testing before and after micronization. The settings on record: for Particle size (D50%): laser diffraction; for Water (% w/w): Karl Fischer. As to the method:
Surface area is determined using five point BET analyses are performed with nitrogen as the adsorbing gas (P/Po=0.05 to 0.30) using a Micromeritics TriStar surface area analyzer. Particle size distributions are measured by laser diffraction using a Micromeritics Saturn Digisizer where the particles are suspended in mineral oil with sodium dioctyl sodium sulfosuccinate as a dispersing agent. Drug substance water content is measured by Karl Fischer titration (Schott Titroline KF). Pure water is used as the standard and all relative standard deviations for triplicates are less than 1%. Powder is added directly to the titration media.

A short description of data set [8]: Short-term solution stability of nebulizer formulation. It is filed as physicochemical. The settings on record: 10 mg/mL in 0.12% NaCl, clear glass vials. As for the experimental part:
Aliquots of this solution are filled into clear glass vials and stored at RT (24-26° C.) and at 40° C. The samples are checked daily for DHEA-S content, DHEA content, and appearance. For each time point, duplicate samples are withdrawn and diluted from each vial. […] The study is stopped on day three. […] The solution should easily be stable for the day of reconstitution in a clinical trial. The following section describes the aerosol properties of this formulation.

For data set [9], the system named is rat peritoneal mast cells. The experiment in a line: Mast cell degranulation (histamine secretion) after compound 48/80. It is filed as cell-based. The settings on record: at 0.1 uM; 0.1 μg/ml compound 48/80; 2 min at 37° C. An excerpt:
Leukotrienes are synthesized—though not exclusively by the mast cell (Gilchrist, M., McCauley, S. D., & Befus, A. D. (2004) Expression, localization, and regulation of NOS in human mast cell lines: effects on leukotriene production. Blood 104, 462-469). We determined whether DHEA-sulfate would reduce mast cell degranulation after stimulation with compound 48/80 in rat peritoneal mast cells. Mast cell degranulation was quantified by measurement of histamine, another substance contained within the secretory granules of mast cells. The release of histamine is believed to parallel the release of leukotrienes.
Freshly isolated rat peritoneal mast cells (2×10^5 cells) were pre-incubated for 5 min at 37° C. in a Balanced Salt Solution containing 150 mM NaCl (pH 7.4), 2.7 mM KCl, 0.9 mM CaCl2, 4 mM Na2HPO4, 2.7 mM KH2PO4, 1.75 mg/ml BSA and 0.1 μg/ml compound 48/80.
Following incubation, the mixture is cooled to 4° C. then centrifuged at 4500 rpm for 5 min. The supernatant is collected and mixed for 30 min at 4° C. with 5% TCA (trichloroacetic acid) to cause protein precipitation. […]
The amount of secreted histamine is quantified by measuring the fluorescence intensity at λex=360 nm and λem=450 nm using a spectrofluorimeter (GeminiXS, Molecular Devices). The results are expressed as a percent inhibition of control histamine secretion.

[10] abbreviates: calculated for 20 mM Na+ (0.12% NaCl), Ksp 1316 mM^2, 15° C.

On to `CC(C)=CCC/C(C)=C/CC/C(C)=C/CC/C=C(\C)CC/C=C(\C)CCC=C(C)C` [SQ, squalene], for which the “reversal of DHEA-induced growth inhibition by medium supplement” value with HT-29 SF cells [1] is “no such effect”.
As to `C[C@]12CC[C@H](OS(=O)(=O)[O-])CC1=CC[C@@H]1[C@@H]2CC[C@]2(C)C(=O)CC[C@@H]12.[Na+]` [Anhydrous DHEA-S], the “drug degradation during jet milling micronization” value in data set [2] is recorded as “no detectable degradation”.
On to `CC(C)CCC[C@@H](C)[C@H]1CC[C@H]2[C@@H]3CC=C4C[C@@H](O)CC[C@]4(C)[C@H]3CC[C@]12C` [CH, cholesterol], for which the “reversal of DHEA-induced growth inhibition by medium supplement” value in the data set with HT-29 SF cells [1] is “no such effect”. Further, the figures for the “prevention of DHEA-induced S phase depletion by medium supplement” value in the data set on HT-29 SF cells [3] (48 hours) and in the data set with HT-29 SF cells [3] (72 hours) were “very little effect” and “no effect”, respectively.
As for `Nc1nc(=O)c2c([nH]1)NCC(CNc1ccc(C(=O)N[C@@H](CCC(=O)O)C(=O)O)cc1)N2C=O` (mixture of isomers) [Folinic Acid], the “Intracellular adenosine (nmols)/mg protein, Brain” value in the data set with Intracellular adenosine (once daily 14 days, DHEA 300 mg/kg or methyltestosterone 40 mg/kg by gavage, folinic acid 50 mg/kg i.p., alone or combined, mean ± SEM) is reported as 0.72 ± 0.09 nmols/mg protein. The “Intracellular adenosine (nmols)/mg protein, Heart” value (“Intracellular adenosine … Heart” below) in the data set on Intracellular adenosine (rat heart, once daily 14 days, DHEA 300 mg/kg or methyltestosterone 40 mg/kg by gavage, folinic acid 50 mg/kg i.p., alone or combined, mean ± SEM, control 10.6 ± 0.6) worked out at 12.4 ± 2.1 nmols/mg protein. Moreover, the “Intracellular adenosine (nmols)/mg protein, Liver” value in the data set with Intracellular adenosine (rat liver, once daily 14 days, DHEA 300 mg/kg or methyltestosterone 40 mg/kg by gavage, folinic acid 50 mg/kg i.p., alone or combined, mean ± SEM, control 14.5 ± 1.0) is 16.4 ± 2.4 nmols/mg protein. Further, in the data set with Intracellular adenosine (rat, in vivo), the “adenosine levels when administered alone” value was “increase in adenosine levels for all organs studied”. Also, the “effect of coadministration on steroid-mediated adenosine depletion” value in the data set with Intracellular adenosine (rats, folinic acid 50 mg/kg i.p. with DHEA or methyltestosterone, 14 days) is “completely abrogated steroid-mediated adenosine depletion”.
Consider `C[C@]12CC[C@H](O)CC1=CC[C@@H]1[C@@H]2CC[C@]2(C)C(=O)CC[C@@H]12` [DHEA, 3β-hydroxyandrost-5-en-17-one], for which the “effect on cell cycle distribution” value in the data set on HT-29 SF cells [4] is “G1 block in HT-29 SF cells in a time- and dose-dependent manner”. In addition, the inhibition of growth result in the data set with HT-29 SF cells [5] is “time- and dose-dependent inhibition of growth”. The “Intracellular adenosine … Heart” value with Intracellular adenosine (rat, in vivo) was found to be 6.7 ± 0.5. Besides, the solubility in water result in [6] (water) is recorded as “insoluble”.
For `CC12CCC3C(CC=C4CC(OS(=O)(=O)[O-])CCC43C)C1CCC2=O.[Na+]` (stereo not drawn) [DHEA-S dihydrate], the “Particle size (D50%)” value in data set [7] (Bulk, before micronization) was found to be 31 microns; in data set [7] (Micronized (jet mill)), 3.7 microns. The “Water (% w/w)” value in data set [7] (Bulk) is 8.5 % w/w; in [7] (Micronized), 8.4 % w/w. In addition, in [7] (Micronized, five point BET), the “Surface area (m^2/g)” value is given as 4.9 m^2/g.
Turning to `C[C@@](O)(CCO)CC(=O)O` [MVA, mevalonic acid], the “reversal of DHEA-induced growth inhibition by medium supplement” value in the data set with HT-29 SF cells [1] is “partially overcome”. The entries for the “prevention of DHEA-induced S phase depletion by medium supplement” value with HT-29 SF cells [3] (48 hours) and with HT-29 SF cells [3] (72 hours) were “partially prevented this effect” and “not after 72 hours”, respectively.
In the case of `C[C@]12CC[C@H](OS(=O)(=O)[O-])CC1=CC[C@@H]1[C@@H]2CC[C@]2(C)C(=O)CC[C@@H]12.[Na+]` [DHEA-S, sodium dehydroepiandrostenone sulfate], the “solution appearance on storage” value in data set [8] (40° C.) is reported as “became cloudy after two days of storage”; in data set [8] (RT (24-26° C.)) it was “slight precipitate is observed on the third day”. For the same compound, in data set [9], the “maximal effect, percent inhibition of control histamine secretion” value is 69.9%. In addition, the “equilibrium constant Ksp=[DHEA-S-][Na+]” value in [6] (RT (24-25° C.)) is given as 2236 mM^2; in [6] (refrigerated (7-8° C.)) it was 665 mM^2. In addition, the “estimated DHEA-S solution concentration” value in data set [6] (setting [10]) was 10.7 mg/mL. In addition, in data set [6] (setting [10]), the “estimated DHEA-S- solution concentration” value is recorded as 27.5 mM.
`C[C@]12CCC(=O)C=C1CC[C@@H]1[C@@H]2CC[C@@]2(C)[C@H]1CC[C@]2(C)O` [Methyltestosterone]: in the data set on Intracellular adenosine (methyltestosterone 120 mg/kg, alone or + folinic acid 50 mg/kg, mean ± SEM), the “Intracellular adenosine (nmols)/mg protein, Brain” value was 0.32 ± 0.03 nmols/mg protein. The “Intracellular adenosine … Heart” value with Intracellular adenosine (rat heart, methyltestosterone 120 mg/kg, alone or + folinic acid 50 mg/kg, mean ± SEM, control 10.6 ± 0.6) was found to be 6.0 ± 0.4 nmols/mg protein. The “Intracellular adenosine (nmols)/mg protein, Liver” value with Intracellular adenosine (rat liver, methyltestosterone 120 mg/kg, mean ± SEM, control 14.5 ± 1.0) came out at 5.1 ± 0.5 nmols/mg protein; in the data set on Intracellular adenosine (rat, in vivo), 16.5 ± 0.9 nmols/mg protein.
